The values that follow come from US8802411B2, “ADP detection based luminescent phosphotransferase or ATP hydrolase assay” (Promega Corporation, priority 2008, dated 2014).

For one test, the system named is adenylate cyclase (AC). Put plainly: Adenylate cyclase assay and inhibition. In kind it is biochemical. As to conditions: for use as inhibitors of adenylate cyclase: calmodulin antagonists, when converting ADP to ATP, FIG. 5. The protocol:
Activity of various adenylyl cyclases (ACs) was measured at 30° C. for 30 minutes in the presence of 60 mM Tris pH 7.5, 10 mM MgCl2, 40 nM calmodulin and variable ATP concentrations. Except for those experiments related to AC titration, 100 ng of the AC was used. When used, the calmodulin antagonists were prepared according to the manufacturer's recommendation and were added directly to the AC reaction when direct inhibition was assessed or to the reaction converting ADP to ATP to assess AC inhibition during ATP formation.

The target of the next test is T1, pyruvate kinase (Oryctolagus cuniculus, UniProt P11974).
T1 construct: Pyruvate kinase from rabbit muscle (Sigma Catalog number P9136); purchased Sigma P9136; host or cells: rabbit muscle
T1 sequence (P11974 whole entry): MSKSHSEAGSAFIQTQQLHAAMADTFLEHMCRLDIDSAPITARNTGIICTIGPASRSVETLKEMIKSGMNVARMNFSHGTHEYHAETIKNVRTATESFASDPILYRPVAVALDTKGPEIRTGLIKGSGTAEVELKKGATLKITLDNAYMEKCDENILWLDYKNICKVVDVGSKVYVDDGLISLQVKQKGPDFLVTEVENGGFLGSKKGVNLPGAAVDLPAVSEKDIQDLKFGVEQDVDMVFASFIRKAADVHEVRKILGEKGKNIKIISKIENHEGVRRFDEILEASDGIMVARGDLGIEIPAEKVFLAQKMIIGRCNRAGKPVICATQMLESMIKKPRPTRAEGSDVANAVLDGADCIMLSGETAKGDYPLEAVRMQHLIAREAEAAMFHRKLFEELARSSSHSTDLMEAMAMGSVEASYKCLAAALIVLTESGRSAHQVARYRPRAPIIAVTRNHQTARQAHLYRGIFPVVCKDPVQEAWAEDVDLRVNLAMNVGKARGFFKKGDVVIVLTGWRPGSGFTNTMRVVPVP
In words: ADP to ATP conversion by pyruvate kinase (ADP detection assay). In kind it is biochemical, rabbit. On the procedure:
Pyruvate kinase from rabbit muscle (Sigma Catalog number P9136), myokinase from chicken muscle (Sigma Catalog number M5520), myokinase from rabbit muscle (Sigma Catalog number M3003), creatine phosphokinase from bovine heart (Sigma Catalog number C7886), creatine phosphokinase from rabbit brain (Sigma Catalog number C6638), and creatine phosphokinase from rabbit muscle (Sigma Catalog number C3755) were obtained from Sigma.
80 μL of Reagent 2 (800 μM phosphoenolpyruvate and 800 mU pyruvate kinase in 80 μL Kinase-Glo® Max (Promega Corp.)) were added simultaneously to the kinase or ATPase reaction and incubated for 30-60 minutes at room temperature. The data were collected using a plate reading luminometer (GloMax® 96 Microplate Luminometer).
When the assay was performed in 3 steps, the following modification was introduced. After the ATP depletion step, 20 μL of pyruvate kinase (PK) reagent (40 mM Tris pH 7.0, 335 mM KCl, 500 μM calmidazolium, 500 μM phosphoenolpyruvate, 15 mM EDTA, 0.3 mg/mL BSA and 300-600 mU pyruvate kinase) was added, the reaction incubated for 5-10 minutes, and 100 μL Kinase-Glo® Max (Promega Corp.) was added to detect the ATP produced. After a 10 minute incubation, the plate was read on a plate reading luminometer (GloMax 96 Microplate Luminometer; Promega Corp.).

Take `Clc1ccc(C(c2ccc(Cl)cc2)n2cc[n+](CC(OCc3ccc(Cl)cc3Cl)c3ccc(Cl)cc3Cl)c2)cc1` (centres unmarked) [calmidazolium]: in the test on adenylate cyclase (AC) (FIG. 6), the “inhibition of AC” value is listed as “inhibited”. Also, the “use as inhibitors of adenylate cyclase” value with adenylate cyclase (AC) was “may be used as inhibitors of adenylate cyclase”. Further, the “interference with pyruvate kinase conversion of ADP to ATP” value on pyruvate kinase (even at high calmidozolium concentrations, FIG. 6) was “without any significant interference”.
In the case of `CN[C@@H]1C[C@H]2O[C@@](C)([C@@H]1OC)n1c3ccccc3c3c4c(c5c6ccccc6n2c5c31)C(=O)NC4` [staurosporine], the “interference with the pyruvate kinase reaction” value on pyruvate kinase (inhibitor used to stop or tested in PKA kinase reaction, FIG. 13) is “did not interfere significantly”.
As for `CN1CCN(CCCN2c3ccccc3Sc3ccc(C(F)(F)F)cc32)CC1` [trifluoroperazine], in the test with adenylate cyclase (AC), the “use as inhibitors of adenylate cyclase” value is given as “may be used as inhibitors of adenylate cyclase”.
